What all share (type): functional, cell-based
Common to all, as to conditions: Homo sapiens

For assay [1], the system named is COLO 205. Put plainly: Compound was tested in vitro for growth inhibition of COLO 205, colon cell line; Range=4-10 ug/ml.
The test system of assay [2] is SK-BR-3. Put plainly: Compound was tested in vitro for growth inhibition of SK-BR-3, breast adenocarcinoma cell line; Range=4-10 ug/ml.
Assay [3] relates to KB. Put plainly: Compound was tested in vitro for growth inhibition of KB, oral epidermoid cell line; Range=4-10 ug/ml.
The subject of assay [4] is HepG2. Put plainly: Compound was tested in vitro for growth inhibition of Hep G2, […] cell line.
The subject of assay [5] is MOLT-4. Put plainly: Compound was tested in vitro for growth inhibition of Molt-4, leukemia cell line.
The subject of assay [6] is HepG2. Put plainly: Compound was tested in vitro for growth inhibition of Hep G2, […] cell line.
For assay [7], the system named is HepG2. Put plainly: Compound was tested in vitro for growth inhibition of Hep G2, […] cell line; Range=4-10 ug/ml.
The subject of assay [8] is KB. Put plainly: Compound was tested in vitro for growth inhibition of KB, oral epidermoid cell line.
Assay [9] relates to SK-BR-3. Put plainly: Compound was tested in vitro for growth inhibition of SK-BR-3, […] cell line.
Assay [10] deals with COLO 205. Put plainly: Compound was tested in vitro for growth inhibition of COLO 205, colon cell line.

SMILES strings stand for the structures. Values after ≈ are worked out from the molar mass of the structure shown.

For `COC(=O)c1ccccc1S(=O)(=O)CC#C/C=C\C#CCO`, the 50% inhibitory concentration (IC50) in assay [1] was 10 µg/mL (≈ 31.4 µM); in [2], 10 µg/mL (≈ 31.4 µM); in assay [3], 10 µg/mL (≈ 31.4 µM); in [4], over 10 µg/mL.
In the case of `O=S(=O)(CC#C/C=C\C#CCO)c1ccc2ccccc2c1`, the IC50 was under 4 µg/mL in assay [5]; 10 µg/mL (≈ 32.2 µM) in [1]; 10 µg/mL (≈ 32.2 µM) in assay [2]; 10 µg/mL (≈ 32.2 µM) in [3]; over 10 µg/mL in assay [4].
As to `O=S(=O)(CC#C/C=C\C#CCO)c1ccccc1`, the IC50 in [1] was 10 µg/mL (≈ 38.4 µM); in assay [6] it was over 10 µg/mL; in [2], 10 µg/mL (≈ 38.4 µM); in assay [3], 10 µg/mL (≈ 38.4 µM).
Turning to `O=S(=O)(CC#Cc1cc2ccccc2cc1C#CCO)c1ccccc1`, the IC50 in [5] is under 4 µg/mL; in assay [1], 10 µg/mL (≈ 27.7 µM); in [2] it was 10 µg/mL (≈ 27.7 µM); in [7], 10 µg/mL (≈ 27.7 µM); in assay [8], 10 µg/mL (≈ 27.7 µM).
Regarding `O=S(=O)(CC#Cc1ccccc1C#CCO)c1ccccc1`, the IC50 in [5] is under 4 µg/mL; in [7], 10 µg/mL (≈ 32.2 µM); in assay [9] it was under 4 µg/mL; in [8], 10 µg/mL (≈ 32.2 µM); in assay [10], under 4 µg/mL.
In [4], `O=S(=O)(CC#Cc1ccccc1C#CCO)c1ccc2ccccc2c1` came in with an IC50 of under 4 µg/mL.
In the case of `COc1ccc(S(=O)(=O)CC#C/C=C\C#CCO)cc1`, the IC50 in assay [1] was 10 µg/mL (≈ 34.4 µM); in assay [2], 10 µg/mL (≈ 34.4 µM); in [3] it was 10 µg/mL (≈ 34.4 µM); in [4] it was over 10 µg/mL.

These data come from ChEMBL document CHEMBL1128998, “Chemical synthesis, DNA cleavage and antitumor activity of molecules with (Z)-7-sulfonyl-3-hexene-1,5-diyne functionalities” (Bioorg Med Chem Lett, 1996).
